Assays:
Format in all cases: biochemical
EGFR WT = EGFR WT (Homo sapiens (Human), UniProt P00533); experiment: HotSpot radiometric kinase assay (Reaction Biology), EGFR WT; settings: 10 μM ATP
Outline: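 Kinase, substrate and cofactors are mixed in 20 mM Hepes pH 7.5 with 10 mM MgCl2, 1 mM EGTA, 2 mM DTT and 1% DMSO. Compound is added, and about 20 min later ATP/33P-ATP (10 μM final) starts a 120-min room-temperature reaction, which is then spotted onto P81 paper.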

CLK2 = CLK2 (Homo sapiens (Human), UniProt P49760); experiment: Inhibition of CLK2 kinase activity evaluated at Nanosyn (ADP-Glo); settings: ADP-Glo luminescence
Outline: (§1)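 Enzyme + substrate in HEPES pH 7.5/MgCl2/DTT buffer; compound dispensed acoustically, 1% DMSO. ATP start, assay-specific incubation time. ADP-Glo reagent 40 min, detection reagent 10 min, luminescence. %inh vs DMSO (0%) and no-enzyme (100%) controls.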

EGFR Δ746-750 mutant = EGFR Δ746-750 mutant (Homo sapiens (Human), UniProt P00533, DEL746-750); experiment: HotSpot radiometric kinase assay, EGFR Δ746-750 mutant; settings: 10 μM ATP
Outline: (§2)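 Radiometric filter-binding read-out: incorporated 33P was retained on P81 ion-exchange paper after washing away unbound phosphate. Reactions ran 120 min at room temperature with 10 μM final ATP, following ~20 min compound preincubation in Hepes pH 7.5 buffer containing 1% DMSO. IC50 from fitted curves.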

CLK3 = CLK3 (Homo sapiens (Human), UniProt P49761); experiment: Inhibition of CLK3 kinase activity evaluated at Nanosyn (ADP-Glo); settings: ADP-Glo luminescence
Outline: as §1

CLK4 = CLK4 (Homo sapiens (Human), UniProt Q9HAZ1); experiment: Inhibition of CLK4 kinase activity evaluated at Nanosyn (ADP-Glo); settings: ADP-Glo luminescence
Outline: as §1

EGFR L858R/T790M mutant = EGFR L858R/T790M mutant (Homo sapiens (Human), UniProt P00533, L858R/T790M); experiment: HotSpot radiometric kinase assay, EGFR L858R/T790M mutant; settings: 10 μM ATP
Outline: as §2

EGFR (D770_N771insNPG) = EGFR (D770_N771insNPG) (Homo sapiens (Human), UniProt P00533, INS770NPG); experiment: HotSpot radiometric kinase assay, EGFR (D770_N771insNPG); settings: 10 μM ATP, read-out: EGFR (Δ770_N771insNPG) IC50
Outline: as §2

EGFR L858R mutant = EGFR L858R mutant (Homo sapiens (Human), UniProt P00533, L858R); experiment: HotSpot radiometric kinase assay, EGFR L858R mutant; settings: 10 μM ATP
Outline: as §2

CLK1 = CLK1 (Homo sapiens (Human), UniProt P49759); experiment: Inhibition of CLK1 kinase activity evaluated at Nanosyn (ADP-Glo); settings: ADP-Glo luminescence
Outline: as §1

[1] = target: EGFR L858R/T790M/C797S mutant (Homo sapiens (Human), UniProt P00533, C797S/L858R/T790M); experiment: HotSpot radiometric kinase assay, EGFR L858R/T790M/C797S mutant; settings: 10 μM ATP
Outline: as §2

[2] = target: EGFR Δ746-750/C797S mutant (Homo sapiens (Human), UniProt P00533, C797S/DEL746-750); experiment: HotSpot radiometric kinase assay, EGFR Δ746-750/C797S mutant; settings: 10 μM ATP
Outline: as §2

Chain of EGFR Δ746-750/C797S mutant (P00533 other isoform, or with tags, fused parts or gaps C797S/del 1-668/del 746-750 limits assumed): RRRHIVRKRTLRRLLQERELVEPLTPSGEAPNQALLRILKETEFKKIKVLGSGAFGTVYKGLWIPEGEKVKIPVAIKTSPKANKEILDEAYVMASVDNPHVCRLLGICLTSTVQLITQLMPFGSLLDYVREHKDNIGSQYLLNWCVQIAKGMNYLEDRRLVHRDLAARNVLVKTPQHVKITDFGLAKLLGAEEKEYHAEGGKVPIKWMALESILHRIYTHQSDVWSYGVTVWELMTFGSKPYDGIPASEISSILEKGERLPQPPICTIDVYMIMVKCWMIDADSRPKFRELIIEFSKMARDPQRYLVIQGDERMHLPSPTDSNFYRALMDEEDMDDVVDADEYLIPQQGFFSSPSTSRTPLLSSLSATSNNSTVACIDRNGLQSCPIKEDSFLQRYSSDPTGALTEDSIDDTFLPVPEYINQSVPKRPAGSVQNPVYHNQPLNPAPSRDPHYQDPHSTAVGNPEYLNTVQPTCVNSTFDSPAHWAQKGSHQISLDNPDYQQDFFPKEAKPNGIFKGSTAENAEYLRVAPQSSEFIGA
Chain of EGFR (D770_N771insNPG) (P00533 other isoform, or with tags, fused parts or gaps del 1-668/ins NPG behind 770 limits assumed): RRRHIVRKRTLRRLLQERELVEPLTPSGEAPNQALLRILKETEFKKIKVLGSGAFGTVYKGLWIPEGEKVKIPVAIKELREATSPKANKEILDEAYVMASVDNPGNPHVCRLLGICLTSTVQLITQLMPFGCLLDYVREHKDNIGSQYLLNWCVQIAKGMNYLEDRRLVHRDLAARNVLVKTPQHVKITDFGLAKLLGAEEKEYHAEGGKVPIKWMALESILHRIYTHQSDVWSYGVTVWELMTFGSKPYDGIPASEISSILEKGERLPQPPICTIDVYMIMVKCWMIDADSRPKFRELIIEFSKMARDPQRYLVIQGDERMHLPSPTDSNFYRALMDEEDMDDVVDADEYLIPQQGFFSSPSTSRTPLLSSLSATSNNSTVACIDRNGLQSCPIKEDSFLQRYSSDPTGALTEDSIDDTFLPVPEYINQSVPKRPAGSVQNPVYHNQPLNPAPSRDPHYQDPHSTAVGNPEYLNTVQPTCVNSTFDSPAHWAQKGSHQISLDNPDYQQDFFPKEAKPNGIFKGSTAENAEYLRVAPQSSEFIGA
Chain of EGFR L858R/T790M/C797S mutant (P00533 25-1210 T790M/C797S/L858R): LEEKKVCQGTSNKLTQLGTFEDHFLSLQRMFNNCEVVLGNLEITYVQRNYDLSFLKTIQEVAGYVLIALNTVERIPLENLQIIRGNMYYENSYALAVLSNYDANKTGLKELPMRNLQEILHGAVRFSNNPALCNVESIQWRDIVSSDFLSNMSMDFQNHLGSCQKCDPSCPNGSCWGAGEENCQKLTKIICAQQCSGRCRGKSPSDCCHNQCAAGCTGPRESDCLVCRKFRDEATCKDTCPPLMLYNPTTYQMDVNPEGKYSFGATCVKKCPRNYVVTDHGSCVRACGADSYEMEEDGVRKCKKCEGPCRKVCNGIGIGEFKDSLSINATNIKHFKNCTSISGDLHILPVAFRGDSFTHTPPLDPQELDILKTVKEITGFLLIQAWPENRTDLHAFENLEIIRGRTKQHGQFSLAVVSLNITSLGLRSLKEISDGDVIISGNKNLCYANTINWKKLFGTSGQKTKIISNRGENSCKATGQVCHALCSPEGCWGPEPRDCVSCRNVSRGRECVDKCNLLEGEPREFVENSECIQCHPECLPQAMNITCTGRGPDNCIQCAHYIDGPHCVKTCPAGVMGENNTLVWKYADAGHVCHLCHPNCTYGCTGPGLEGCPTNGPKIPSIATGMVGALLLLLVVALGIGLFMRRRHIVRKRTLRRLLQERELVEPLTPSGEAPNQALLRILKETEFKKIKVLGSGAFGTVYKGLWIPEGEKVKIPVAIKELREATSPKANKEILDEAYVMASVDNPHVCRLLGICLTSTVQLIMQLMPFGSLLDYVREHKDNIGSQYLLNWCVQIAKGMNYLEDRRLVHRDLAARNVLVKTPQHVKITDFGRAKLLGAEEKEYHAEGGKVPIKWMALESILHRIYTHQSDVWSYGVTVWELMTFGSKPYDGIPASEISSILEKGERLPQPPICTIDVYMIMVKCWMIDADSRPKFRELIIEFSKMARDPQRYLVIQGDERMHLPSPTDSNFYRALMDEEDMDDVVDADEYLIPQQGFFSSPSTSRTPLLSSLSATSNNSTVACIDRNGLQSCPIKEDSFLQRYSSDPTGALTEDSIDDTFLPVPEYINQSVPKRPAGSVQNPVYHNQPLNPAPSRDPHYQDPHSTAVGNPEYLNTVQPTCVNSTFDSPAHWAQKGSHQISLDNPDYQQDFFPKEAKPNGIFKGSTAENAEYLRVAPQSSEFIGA
Chain of EGFR Δ746-750 mutant (P00533 other isoform, or with tags, fused parts or gaps del 1-668/del 746-750 limits assumed): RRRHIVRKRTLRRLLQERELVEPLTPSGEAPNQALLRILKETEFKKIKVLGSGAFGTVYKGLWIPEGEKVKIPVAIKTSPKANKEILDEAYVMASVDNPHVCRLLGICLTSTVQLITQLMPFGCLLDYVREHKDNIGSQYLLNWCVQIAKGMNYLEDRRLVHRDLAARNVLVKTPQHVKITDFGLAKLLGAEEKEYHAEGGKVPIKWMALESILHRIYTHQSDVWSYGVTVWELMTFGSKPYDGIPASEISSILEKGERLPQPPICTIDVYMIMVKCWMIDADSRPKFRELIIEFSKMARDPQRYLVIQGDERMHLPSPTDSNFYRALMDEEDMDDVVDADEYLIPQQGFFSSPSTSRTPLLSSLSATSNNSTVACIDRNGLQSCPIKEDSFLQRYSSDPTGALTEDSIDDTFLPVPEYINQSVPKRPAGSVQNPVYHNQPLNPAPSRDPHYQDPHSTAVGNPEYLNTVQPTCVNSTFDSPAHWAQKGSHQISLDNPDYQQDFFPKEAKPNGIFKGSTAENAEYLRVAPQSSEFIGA
Chain of EGFR L858R mutant (P00533 25-1210 L858R): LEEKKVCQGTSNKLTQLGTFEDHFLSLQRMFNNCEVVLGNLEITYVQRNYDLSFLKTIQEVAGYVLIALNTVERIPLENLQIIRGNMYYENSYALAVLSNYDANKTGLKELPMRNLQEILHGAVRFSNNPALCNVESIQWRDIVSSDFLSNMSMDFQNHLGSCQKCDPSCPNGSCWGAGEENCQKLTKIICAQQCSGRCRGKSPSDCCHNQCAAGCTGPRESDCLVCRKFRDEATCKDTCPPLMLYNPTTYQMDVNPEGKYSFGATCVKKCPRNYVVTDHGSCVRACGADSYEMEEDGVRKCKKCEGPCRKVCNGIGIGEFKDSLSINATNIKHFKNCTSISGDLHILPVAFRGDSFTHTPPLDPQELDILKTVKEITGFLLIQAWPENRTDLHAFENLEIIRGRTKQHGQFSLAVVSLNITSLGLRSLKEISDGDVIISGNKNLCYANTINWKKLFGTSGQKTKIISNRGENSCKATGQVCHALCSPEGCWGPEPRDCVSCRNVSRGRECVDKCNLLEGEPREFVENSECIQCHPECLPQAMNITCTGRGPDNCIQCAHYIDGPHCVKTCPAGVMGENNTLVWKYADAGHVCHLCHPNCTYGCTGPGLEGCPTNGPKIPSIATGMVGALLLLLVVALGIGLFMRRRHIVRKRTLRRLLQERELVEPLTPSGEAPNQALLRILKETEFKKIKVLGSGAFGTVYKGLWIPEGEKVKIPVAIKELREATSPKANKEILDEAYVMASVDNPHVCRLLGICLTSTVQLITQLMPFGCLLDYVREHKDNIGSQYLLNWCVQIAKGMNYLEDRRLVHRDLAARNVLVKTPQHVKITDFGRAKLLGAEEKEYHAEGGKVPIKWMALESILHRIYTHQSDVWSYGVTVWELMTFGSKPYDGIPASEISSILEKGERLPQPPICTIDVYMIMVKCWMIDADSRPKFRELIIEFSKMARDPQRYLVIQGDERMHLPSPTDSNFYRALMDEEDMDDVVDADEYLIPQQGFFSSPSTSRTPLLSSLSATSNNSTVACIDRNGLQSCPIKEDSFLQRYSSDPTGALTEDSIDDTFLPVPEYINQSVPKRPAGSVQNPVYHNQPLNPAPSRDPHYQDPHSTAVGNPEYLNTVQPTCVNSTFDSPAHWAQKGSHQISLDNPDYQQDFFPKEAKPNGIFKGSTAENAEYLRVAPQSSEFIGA
Chain of CLK2 (P49760 whole entry): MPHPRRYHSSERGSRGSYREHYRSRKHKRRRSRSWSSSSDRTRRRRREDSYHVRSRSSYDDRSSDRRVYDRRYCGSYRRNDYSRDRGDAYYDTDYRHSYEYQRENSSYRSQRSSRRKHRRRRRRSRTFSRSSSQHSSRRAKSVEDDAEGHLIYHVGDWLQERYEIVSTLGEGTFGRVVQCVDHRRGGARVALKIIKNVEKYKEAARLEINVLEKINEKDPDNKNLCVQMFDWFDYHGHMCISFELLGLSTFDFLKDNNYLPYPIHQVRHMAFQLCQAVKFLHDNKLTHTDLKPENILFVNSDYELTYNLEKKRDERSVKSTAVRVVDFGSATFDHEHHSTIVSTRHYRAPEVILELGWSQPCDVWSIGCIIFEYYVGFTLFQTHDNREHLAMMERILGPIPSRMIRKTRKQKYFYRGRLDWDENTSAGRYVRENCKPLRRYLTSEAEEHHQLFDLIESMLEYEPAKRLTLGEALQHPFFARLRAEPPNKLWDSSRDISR
Chain of CLK4 (Q9HAZ1 whole entry): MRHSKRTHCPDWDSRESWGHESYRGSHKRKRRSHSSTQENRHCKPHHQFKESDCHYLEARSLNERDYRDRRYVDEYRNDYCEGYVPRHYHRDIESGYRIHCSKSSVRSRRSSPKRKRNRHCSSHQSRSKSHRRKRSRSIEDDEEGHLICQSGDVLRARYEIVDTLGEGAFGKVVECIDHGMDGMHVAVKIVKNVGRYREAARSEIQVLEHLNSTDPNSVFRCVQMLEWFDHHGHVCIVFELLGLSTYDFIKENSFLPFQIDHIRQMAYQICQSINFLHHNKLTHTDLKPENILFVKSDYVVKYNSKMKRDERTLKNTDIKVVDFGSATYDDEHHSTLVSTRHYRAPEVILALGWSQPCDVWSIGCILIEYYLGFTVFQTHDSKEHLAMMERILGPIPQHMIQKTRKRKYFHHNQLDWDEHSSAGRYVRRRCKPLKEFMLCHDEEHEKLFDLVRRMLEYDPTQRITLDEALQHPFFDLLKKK

Row | SMILES | IC50 (EGFR WT) | IC50 (CLK2) | IC50 (EGFR Δ746-750 mutant) | IC50 (CLK3) | IC50 (CLK4) | IC50 (EGFR L858R/T790M mutant) | IC50 (EGFR (D770_N771insNPG)) | IC50 (EGFR L858R mutant) | IC50 (CLK1) | IC50 [1] | IC50 [2]
1 | CCN1Cc2c(c(OC(C)C)nn2C[C@H](C)O)/C=C/c2n[nH]c3ccc(cc23)-c2cnn(C)c2O[C@H](C)C1 [Example 227, (2S)-1-{(10R,17E)-12-ethyl-8,10-dimethyl-16-[(propan-2-yl)oxy]-2,8,10,11,12,13-hexahydro-14H-3,5-ethenotripyrazolo[3,4-f:3′,4′-j:4″,3″- n][1,4]oxazacyclopentadecin-14-yl}propan-2-ol] | 251 nM | 2.59 nM | 9.86 nM | 471 nM | 4.63 nM | 0.84 nM | 167 nM | 60.1 nM | 4.9 nM | 0.36 nM | 6.82 nM
2 | Cc1nn(C)c2c1/C=C/c1n[nH]c3ccc(cc13)-c1cnn(C)c1OCCN(C)C2 [Example 43, (17E)-8,12,14,16-tetramethyl-2,10,11,12,13,14-hexahydro-8H-3,5-ethenotripyrazolo[3,4-f:3′,4′-j:4″,3″- n][1,4]oxazacyclopentadecine] | 543 nM | 0.14 nM | 74.8 nM | 236 nM | 0.25 nM | 13.5 nM | 541 nM | 144 nM | 0.1 nM | 34.5 nM | 133 nM
3 | Cc1nn(C)c2c1/C=C/c1n[nH]c3ccc(cc13)-c1cnn(C)c1O[C@@H](C)CN(C)[C@@H]2C (single isomer, unassigned) [Example 144] | 8.81 nM | 0.05 nM | 1.88 nM | 168 nM | 0.55 nM | 0.41 nM | 24.5 nM | 1.47 nM | 0.21 nM | 0.7 nM | 1.93 nM
4 | C[C@@H](C#N)Oc1nn(CCO)c2c1/C=C/c1n[nH]c3cc(F)c(cc13)-c1cnn(C)c1O[C@@H](C)CN(C)C2 [Ex. 269, (2S)-2-{[(10S,17E)-19-fluoro-14-(2-hydroxyethyl)-8,10,12-trimethyl-2,10,11,12,13,14-hexahydro-8H-3,5-ethenotripyrazolo[3,4-f:3′,4′-j:4″,3″-n][1,4]oxazacyclopentadecin-16-yl]oxy}propanenitrile] | 20.3 nM | 0.32 nM | 5.25 nM | 238 nM | 1.76 nM | 1.82 nM | 102 nM | 8.53 nM | 0.94 nM | 0.67 nM | 2.56 nM
5 | C[C@H]1CN(C)Cc2c(c(OCC#N)nn2CCO)/C=C/c2n[nH]c3ccc(cc23)-c2cnn(C)c2O1 [Example 203, {[(10S,17E)-14-(2-hydroxyethyl)-8,10,12-trimethyl-2,10,11,12,13,14-hexahydro-8H-3,5-ethenotripyrazolo[3,4-f:3′,4′-j:4″,3″- n][1,4]oxazacyclopentadecin-16-yl]oxy}acetonitrile] | 0.23 nM | 0.14 nM | 0.11 nM | 151 nM | 1.59 nM | 0.17 nM | 0.65 nM | 0.12 nM | 0.72 nM | 0.78 nM | 0.23 nM
6 | CC(C)Oc1nn(CCO)c2c1/C=C/c1n[nH]c3cc(F)c(cc13)-c1cnn(C)c1O[C@@H]1CCCN(C2)C1 [Example 199, 2-[(10R,19E)-22-fluoro-8-methyl-18-[(propan-2-yl)oxy]-2,10,11,12,13,15-hexahydro-3,5-etheno-10,14-methanotripyrazolo[3,4-h:3′,4′-l:4″,3″- p][1,6]oxazacycloheptadecin-16(8H)-yl]ethan-1-ol] | 1280 nM | 2.29 nM | 147 nM | 19.3 nM | 1.79 nM | 64.4 nM | > 1000 nM | 87.8 nM | 1.05 nM | 43.9 nM | 42.5 nM
7 | CCN1Cc2c(c(OC(C)C)nn2CC(C)=O)/C=C/c2n[nH]c3ccc(cc23)-c2cnn(C)c2O[C@@H](C)C1 [Example 263, 1-{(10S,17E)-12-ethyl-8,10-dimethyl-16-[(propan-2-yl)oxy]-2,8,10,11.12,13-hexahydro-14H-3,5-ethenotripyrazolo[3,4-f:3′,4′-j:4″,3″-n][1,4]oxazacyclopentadecin-14-yl}propan-2-one] | 6.94 nM | 0.71 nM | 1.28 nM | 32.7 nM | 1.31 nM | 0.75 nM | 18.2 nM | 3.97 nM | 0.64 nM | 0.5 nM | 1.79 nM
8 | CCOc1nn(CC(C)(C)O)c2c1/C=C/c1n[nH]c3ccc(cc13)-c1cnn(C)c1O[C@@H](C)CN(CC)C2 [Example 222, 1-[(10S,17E)-16-ethoxy-12-ethyl-8,10-dimethyl-2,8,10,11,12,13-hexahydro-14H-3,5-ethenotripyrazolo[3,4-f:3′,4′-j:4″,3″-n][1,4]oxazacyclopentadecin-14-yl]-2-methylpropan-2-ol] | 27.8 nM | 3.17 nM | 1.77 nM | 306 nM | 2.46 nM | 0.31 nM | 57.8 nM | 4.75 nM | 2.31 nM | 0.18 nM | 2.17 nM
9 | CCN1Cc2c(c(OC(C)C)nn2CC(C)(C)O)/C=C/c2n[nH]c3ccc(cc23)-c2cnn(C)c2O[C@@H](C)C1 [Example 262, 1-{(10S,17E)-12-ethyl-8,10-dimethyl-16-[(propan-2-yl)oxy]-2,8,10,11,12,13-hexahydro-14H-3,5-ethenotripyrazolo[3,4-f:3′,4′-j:4″,3″-n][1,4]oxazacyclopentadecin-14-yl}-2-methylpropan-2-ol] | 94.5 nM | 0.49 nM | 8.48 nM | 104 nM | 1.5 nM | 4.98 nM | 98.3 nM | 40.1 nM | 0.82 nM | 1.67 nM | 7.12 nM
10 | C[C@H]1CN(C)Cc2c(c(OCC(F)(F)F)nn2C)/C=C/c2n[nH]c3ccc(cc23)-c2cnn(C)c2O1 [Example 162, (10S,17E)-8,10,12,14-tetramethyl-16-(2,2,2-trifluoroethoxy)-2,10,11,12,13,14-hexahydro-8H-3,5-ethenotripyrazolo[3,4-f:3′,4′-j:4″,3″-n][1,4]oxazacyclopentadecine] | 238 nM | 0.07 nM | 30.5 nM | 784 nM | 0.25 nM | 1.4 nM | 523 nM | 47.4 nM | 0.11 nM | 0.9 nM | 33.5 nM
11 | CCOc1nn([C@H](C)CO)c2c1/C=C/c1n[nH]c3ccc(cc13)-c1cnn(C)c1O[C@@H](C)CN(C)C2 [Example 171, (2R)-2-[(10S,17E)-16-ethoxy-8,10,12-trimethyl-2,8,10,11,12,13-hexahydro-14H-3,5-ethenotripyrazolo[3,4-f:3′,4′-j:4″,3″-n][1,4]oxazacyclopentadecin-14-yl]propan-1-ol] | 67.2 nM | 0.62 nM | 38.3 nM | 977 nM | 0.57 nM | 0.5 nM | 86 nM | 7.5 nM | 0.85 nM | 1.32 nM | 8.74 nM
12 | CCOc1nn(CCO)c2c1/C=C/c1n[nH]c3ccc(cc13)-c1cnn(C)c1OC[C@H](C)N(C1CC1)C2 [Example 198, 2-[(11S,17E)-12-cyclopropyl-16-ethoxy-8,11-dimethyl-2,8,10,11,12,13-hexahydro-14H-3,5-ethenotripyrazolo[3,4-f:3′,4′-j:4″,3″- n][1,4]oxazacyclopentadecin-14-yl]ethan-1-ol] | 36.8 nM | 1.61 nM | 5.84 nM | 1000 nM | 1.63 nM | 0.89 nM | 47 nM | 13.1 nM | 0.76 nM | 0.26 nM | 1.96 nM

Reference: patent US20250353864A1, “INDAZOLE CONTAINING MACROCYCLES AND THEIR USE” (BLOSSOMHILL THERAPEUTICS, INC., priority 2022, published 2025)
